In brackets after ≈: the same amount, converted by molar mass. Where two headings read alike, the source gives them in different places.
How the values were obtained:
Test in all cases: MIC, agar dilution method, pH 8.0
Format in all cases: cell-based
[1] = system: Staphylococcus aureus KY4279 ATCC6538P
Experimental: (§1) Measurement was carried out according to the agar dilution method, using a medium of pH 8.0, or the Japanese Antibiotic Medicament Standard, using a medium of pH 7.2 Units are in mcg/ml.
S.A.: Staphylococcus aureus KY4279 ATCC6538P

[2] = system: Bacillus subtilis KY4273
Experimental: as §1
B.S.: Bacillus subtilis KY4273

[3] = system: Eschericia coli KY4271 ATCC26; conditions: Escherichia coli
Experimental: as §1
E.C.: Eschericia coli KY4271 ATCC26

[4] = system: Proteus vulgaris KY4277 ATCC6897
Experimental: as §1

[5] = system: Shigella sonnei KY4281 ATCC9290
Experimental: as §1

[6] = system: Salmonella typhosa KY4278 ATCC9992; conditions: Salmonella enterica, pH 8, read-out: Minimum inhibition concentration (MIC), ST
Experimental: as §1
S.T.: Salmonella typhosa KY4278 ATCC9992

[7] = system: Klebsiella pneumoniae KY4275 ATCC10031; conditions: ATCC10031; pH 8.0; Klebsiella pneumoniae KY4275; read-out: Minimum inhibition concentration (MIC), KP
Experimental: as §1
K.P.: Klebsiella pneumoniae KY4275 ATCC10031.

[8] = pH 8.0, Staphylococcus aureus KY4279, read-out: Minimum inhibition concentration (MIC), SA
[9] = pH 8.0, Bacillus subtilis KY4273, read-out: Minimum inhibition concentration (MIC), BS
[10] = ATCC26, pH 8.0, E. coli KY4271, read-out: Minimum inhibition concentration (MIC), EC
[11] = ATCC6897, pH 8.0, Proteus vulgaris KY4277, read-out: Minimum inhibition concentration (MIC), PV
[12] = ATCC9290, pH 8.0, Shigella sonnei KY4281, read-out: Minimum inhibition concentration (MIC), SS
[13] = Bacillus subtilis, KY4273, pH 8, read-out: Minimum inhibition concentration (MIC), BS
[14] = ATCC26, pH 8, read-out: Minimum inhibition concentration (MIC), EC

Row | Compound | MIC [1, 8] | MIC [2, 9] | MIC [3, 10] | MIC [4, 11] | MIC [5, 12] | MIC [6] | MIC [7] | MIC [2, 13] | MIC ([5]; Shigella sonnei, ATCC9290, pH 8, read-out: Minimum inhibition concentration (MIC), SS) | MIC ([4]; Proteus vulgaris, ATCC6897, pH 8, read-out: Minimum inhibition concentration (MIC), PV) | MIC [3, 14] | MIC ([1]; Staphylococcus aureus, pH 8, read-out: Minimum inhibition concentration (MIC), SA)
1 | CCCCC(=O)N(C)[C@H]1[C@@H](O)[C@H](O[C@H]2O[C@H]([C@H](C)N)CC[C@H]2N)[C@@H](N)[C@H](O)[C@@H]1OC [Compound 8, 4-N-(n-valeryl)fortimicin B] | 100 µg/mL (≈ 231 µM) | 25 µg/mL (≈ 57.8 µM) | > 100 µg/mL | > 200 µg/mL | > 200 µg/mL | > 200 µg/mL | > 200 µg/mL | – | – | – | – | –
2 | CCCCCN(C)[C@H]1[C@@H](O)[C@H](O[C@H]2O[C@H]([C@H](C)N)CC[C@H]2N)[C@@H](N)[C@H](O)[C@@H]1OC [Compound 19, 4-N-(n-pentyl)fortimicin B] | 25 µg/mL (≈ 59.7 µM) | 200 µg/mL (≈ 478 µM) | 100 µg/mL (≈ 239 µM) | > 200 µg/mL | 100 µg/mL (≈ 239 µM) | 100 µg/mL (≈ 239 µM) | > 200 µg/mL | – | – | – | – | –
3 | CO[C@H]1[C@@H](O)[C@H](N)[C@@H](O[C@H]2O[C@H]([C@H](C)N)CC[C@H]2N)[C@H](O)[C@@H]1N(C)C[C@@H](O)CCCN [Compound 33, 4-N-[(S)-5-amino-2-hydroxypentyl]fortimicin B] | 0.32 µg/mL (≈ 0.712 µM) | – | 2.5 µg/mL (≈ 5.56 µM) | 5 µg/mL (≈ 11.1 µM) | – | 10 µg/mL (≈ 22.2 µM) | – | 1.25 µg/mL (≈ 2.78 µM) | 1.25 µg/mL (≈ 2.78 µM) | – | – | –
4 | CNCCC(O)CN(C)[C@H]1[C@@H](O)[C@H](O[C@H]2O[C@H]([C@H](C)N)CC[C@H]2N)[C@@H](N)[C@H](O)[C@@H]1OC (stereo partly drawn) [Compound 30, 4-N-[(R,S)-4-methylamino-2-hydroxybutyl]fortimicin B] | 0.08 µg/mL (≈ 0.178 µM) | 0.02 µg/mL (≈ 0.0445 µM) | 0.32 µg/mL (≈ 0.712 µM) | 0.16 µg/mL (≈ 0.356 µM) | 0.63 µg/mL (≈ 1.4 µM) | 0.08 µg/mL (≈ 0.178 µM) | 0.32 µg/mL (≈ 0.712 µM) | – | – | – | – | –
5 | CNCCN(C)[C@H]1[C@@H](O)[C@H](O[C@H]2O[C@H]([C@H](C)N)CC[C@H]2N)[C@@H](N)[C@H](O)[C@@H]1OC [Compound 26, 4-N-(2-methylaminoethyl)fortimicin B] | 0.04 µg/mL (≈ 0.0986 µM) | 0.32 µg/mL (≈ 0.789 µM) | 0.16 µg/mL (≈ 0.395 µM) | – | 5 µg/mL (≈ 12.3 µM) | 1.25 µg/mL (≈ 3.08 µM) | 5 µg/mL (≈ 12.3 µM) | – | – | 1.25 µg/mL (≈ 3.08 µM) | – | –
6 | CCC(=O)N(C)[C@H]1[C@@H](O)[C@H](O[C@H]2O[C@H]([C@H](C)N)CC[C@H]2N)[C@@H](N)[C@H](O)[C@@H]1OC [Compound 6, 4-N-propionylfortimicin B] | 12.5 µg/mL (≈ 30.9 µM) | 50 µg/mL (≈ 124 µM) | 50 µg/mL (≈ 124 µM) | 200 µg/mL (≈ 494 µM) | > 200 µg/mL | 50 µg/mL (≈ 124 µM) | > 200 µg/mL | – | – | – | – | –
7 | CO[C@H]1[C@@H](O)[C@H](N)[C@@H](O[C@H]2O[C@H]([C@H](C)N)CC[C@H]2N)[C@H](O)[C@@H]1N(C)C(=O)CCCN [Compound 10, 4-N-(γ-amino-n-butyryl)fortimicin B] | 0.32 µg/mL (≈ 0.738 µM) | 0.16 µg/mL (≈ 0.369 µM) | 1.25 µg/mL (≈ 2.88 µM) | 1.25 µg/mL (≈ 2.88 µM) | 2.5 µg/mL (≈ 5.77 µM) | 0.63 µg/mL (≈ 1.45 µM) | 2.5 µg/mL (≈ 5.77 µM) | – | – | – | – | –
8 | CO[C@H]1[C@@H](O)[C@H](N)[C@@H](O[C@H]2O[C@H]([C@H](C)N)CC[C@H]2N)[C@H](O)[C@@H]1N(C)CCNCCN [Compound 25, 4-N-[2-(2-aminoethyl)aminoethyl]fortimicin B] | 0.63 µg/mL (≈ 1.45 µM) | – | – | 5 µg/mL (≈ 11.5 µM) | 5 µg/mL (≈ 11.5 µM) | 1.25 µg/mL (≈ 2.88 µM) | 5 µg/mL (≈ 11.5 µM) | 1.25 µg/mL (≈ 2.88 µM) | – | – | 1.25 µg/mL (≈ 2.88 µM) | –
9 | CCCCN(C)[C@H]1[C@@H](O)[C@H](O[C@H]2O[C@H]([C@H](C)N)CC[C@H]2N)[C@@H](N)[C@H](O)[C@@H]1OC [Compound 18, 4-N-(n-butyl)fortimicin B] | – | 25 µg/mL (≈ 61.8 µM) | 25 µg/mL (≈ 61.8 µM) | 100 µg/mL (≈ 247 µM) | 25 µg/mL (≈ 61.8 µM) | 12.5 µg/mL (≈ 30.9 µM) | > 200 µg/mL | – | – | – | – | 12.5 µg/mL (≈ 30.9 µM)
10 | CO[C@H]1[C@@H](O)[C@H](N)[C@@H](O[C@H]2O[C@H]([C@H](C)N)CC[C@H]2N)[C@H](O)[C@@H]1N(C)C(=O)CNC(=O)CN [Compound 13, 4-N-glycylglycylfortimicin B] | 0.32 µg/mL (≈ 0.692 µM) | 0.32 µg/mL (≈ 0.692 µM) | – | 2.5 µg/mL (≈ 5.4 µM) | 5 µg/mL (≈ 10.8 µM) | 1.25 µg/mL (≈ 2.7 µM) | 2.5 µg/mL (≈ 5.4 µM) | – | – | – | 1.25 µg/mL (≈ 2.7 µM) | –
11 | CO[C@H]1[C@@H](O)[C@H](N)[C@@H](O[C@H]2O[C@H]([C@H](C)N)CC[C@H]2N)[C@H](O)[C@@H]1N(C)C(=O)CCN [Compound 9, 4-N-(β-alanyl)fortimicin B] | 0.08 µg/mL (≈ 0.191 µM) | 0.08 µg/mL (≈ 0.191 µM) | 0.63 µg/mL (≈ 1.5 µM) | 0.63 µg/mL (≈ 1.5 µM) | 1.25 µg/mL (≈ 2.98 µM) | 0.32 µg/mL (≈ 0.763 µM) | 0.32 µg/mL (≈ 0.763 µM) | – | – | – | – | –

Source: US4220755A, “Fortimicin B derivatives and process for production thereof” (Abbott Laboratories, priority 1976, dated 1980)
